According to patent publication US6444681B1, “Methods and compositions for treating Raynaud's Phenomenon and scleroderma” (The Ohio State University Research Foundation, priority 2000, dated 2002):
Where two headings read alike, the source gives them in different places.

Assays:
α-2A = biological target: T1, α-2A (Homo sapiens, UniProt P08913); conditions: cited from earlier work
T1 sequence (P08913 1-465): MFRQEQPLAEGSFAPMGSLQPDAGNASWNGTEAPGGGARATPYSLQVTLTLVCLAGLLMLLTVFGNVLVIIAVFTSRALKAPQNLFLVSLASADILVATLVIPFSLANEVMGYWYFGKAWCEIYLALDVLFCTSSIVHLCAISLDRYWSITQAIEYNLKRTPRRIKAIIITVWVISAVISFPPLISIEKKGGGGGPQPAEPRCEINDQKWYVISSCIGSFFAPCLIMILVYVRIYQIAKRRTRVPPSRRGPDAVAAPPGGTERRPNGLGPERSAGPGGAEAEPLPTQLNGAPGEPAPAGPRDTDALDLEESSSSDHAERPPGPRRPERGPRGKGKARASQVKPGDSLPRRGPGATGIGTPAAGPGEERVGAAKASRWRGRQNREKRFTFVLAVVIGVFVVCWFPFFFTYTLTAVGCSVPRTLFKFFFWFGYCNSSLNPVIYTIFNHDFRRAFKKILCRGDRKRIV

α-2B = biological target: T2, α-2B (Homo sapiens, UniProt P18089); conditions: cited from earlier work
T2 sequence (P18089 1-450): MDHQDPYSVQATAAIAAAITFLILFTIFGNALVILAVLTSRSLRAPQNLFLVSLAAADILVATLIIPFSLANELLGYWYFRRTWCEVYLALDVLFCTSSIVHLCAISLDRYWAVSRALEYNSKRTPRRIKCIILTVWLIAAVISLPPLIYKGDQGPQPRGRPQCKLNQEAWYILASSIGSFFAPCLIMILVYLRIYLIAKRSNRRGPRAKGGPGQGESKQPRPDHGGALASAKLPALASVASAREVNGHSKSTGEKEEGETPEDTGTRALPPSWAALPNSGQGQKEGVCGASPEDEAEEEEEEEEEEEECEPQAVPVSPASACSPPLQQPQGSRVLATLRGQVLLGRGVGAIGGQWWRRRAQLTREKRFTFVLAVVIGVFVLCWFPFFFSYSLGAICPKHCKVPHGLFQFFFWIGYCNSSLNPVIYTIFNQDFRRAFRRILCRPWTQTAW

α-2C = biological target: T3, α-2C (Homo sapiens, UniProt P18825); conditions: cited from earlier work
T3 sequence (P18825 1-462): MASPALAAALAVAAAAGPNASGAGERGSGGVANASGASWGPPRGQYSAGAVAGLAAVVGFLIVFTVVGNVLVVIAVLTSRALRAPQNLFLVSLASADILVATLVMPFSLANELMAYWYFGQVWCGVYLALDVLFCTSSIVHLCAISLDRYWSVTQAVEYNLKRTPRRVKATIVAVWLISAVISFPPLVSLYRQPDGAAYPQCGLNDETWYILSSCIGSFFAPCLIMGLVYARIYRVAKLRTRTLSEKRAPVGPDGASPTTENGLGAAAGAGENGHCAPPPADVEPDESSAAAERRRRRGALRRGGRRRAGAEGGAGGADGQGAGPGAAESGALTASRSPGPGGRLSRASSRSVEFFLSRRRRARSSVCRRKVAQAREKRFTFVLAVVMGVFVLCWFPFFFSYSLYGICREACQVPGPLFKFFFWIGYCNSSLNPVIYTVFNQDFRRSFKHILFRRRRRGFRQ

[1] = system: small dermal arteries/arterioles from healthy controls and SSc subjects; assay: α2C-AR blockade of UK 14,304 vasoconstriction in human dermal arteries from control and SSc subjects; format: cell-based; conditions: for Kb: Homo sapiens, topical, versus UK 14,304, read-out: calculated dissociation constant, −log Kb (converted)
Procedure: Arterioles were dissected from the deep dermal plexus of the biopsies and any side branches tied. […] The arterioles were cannulated with glass micropipettes and placed in a microvessel chamber as previously describe. The arterioles were maintained in no-flow state at a constant transmural pressure (PTM)of 40 mmHg. The chamber was superfused with buffer solution (37° C., pH 7.4, gassed with 16% O2-5% CO2-balance N2) and placed on stage of an inverted microscope for continuous monitoring of internal diameter using a video camera and video dimension analyzer.
In order to determine the influence of α2C-AR blockade, paired arteries from each subject were used. […] In the other artery of each pair, increasing concentrations of the α2C-AR antagonist (MK 912) was administered before the response to UK 14,304 was determined.

CN1CCC2(CCN3CCc4c(oc5ccccc45)C3C2)N(C)C1=O (centres unmarked) [MK 912]
Kd (α-2A): 1.8 nM | Kd (α-2B): 0.33 nM | Kd (α-2C): 0.045 nM | Kb ([1]; SSc arteries): 0.00123 nM | Kb ([1]; control arteries): 0.468 nM | effect on vasoconstrictor response to α2-AR stimulation ([1]; SSc arteries, extremely low concentrations (e.g. 10^−11M)): reduced the vasoconstrictor response | concentration needed to inhibit responses to UK 14,304 ([1]; control arteries): 10^−9 M | concentration needed in control arteries relative to SSc arteries ([1]; control versus SSc arteries): 100 fold
